Reference: US20250282720A1, “ALKYLSULFENYL THIOCARBONATES: PRECURSORS TO HYDROPERSULFIDES POTENTLY ATTENUATE OXIDATIVE STRESS” (The Johns Hopkins University, priority 2021, published 2025)

Legend:
[1] = Kinetics of RSSH release (precursor hydrolysis) in the presence of MMTS, monitored by HPLC; assay type: physicochemical
Method: After confirming RSSH generation from 1a, the kinetics of RSSH release from alkylsulfenyl thiocarbonates in the presence of MMTS was analyzed by high-performance liquid chromatography (HPLC). Due to the lack of a chromophore in MMTS adduct 7, the decay of the RSSH precursor and formation of the corresponding phenol byproduct was monitored. First-order rate constants were obtained by plotting the precursor decay and phenol byproduct formation as a function of time. […] The observation of similar rate constants for both 1a decay and phenol (4a) formation indicates a rapid reaction of relased RSSH with MMTS, and that these observed rate constants indicate the RSSH release rate. Importantly, 92% of the byproduct phenol 4a is observed. In addition, the effect of pH on the kinetics of RSSH release also was examined.
The RSSH release kinetics for precursors containing a variety of para-substituted phenols were then compared. It was hoped to decrease the rate of RSSH release through the introduction of electron-donating groups. Indeed, a small decrease in the RSSH release rate from 1b, equipped with a 4-Me substituent (137±4 min) (Table 1) was observed.
MMTS (100 μL, 50 mM) was added in pH 7.4 phosphate buffer saline (4.85 mL) containing the DTPA (100 μM) as metal chelator. This solution was preincubated for 10 min at 37° C. and then precursor 1a-f or 8 (50 μL, 10 mM) were independently added into the mixture (total volume=5 mL). The resulting solution was incubated at 37° C. At different time points, an aliquot of 300 μL was taken and quenched with 300 μL 0.1% formic acid solution. These samples were stored at 0° C. until HPLC analysis was performed. The sample (20 μL) was injected into a high-performance liquid chromatography (HPLC) equipped with Phenomenex C-18 reverse phase column (250 mm×4.6 mm, 5 μm). HPLC Method: mobile phase A (H2O) and mobile phase B (ACN), flow rate: 1 mL/min, run time: 21 min, the gradient elution method: 10% to 70% B from 0 to 10 min, 70% to 90% B from 10 to 21 min. The elution was monitored by a UV detector at 240 and 275 nm. First-order rate constants were obtained by plotting the precursor decay and phenol by-product formation as a function of time.

[2] = Decomposition of precursors in the presence of thiol (NAC / N-acetyl cysteine methyl ester), HPLC; assay type: physicochemical; details: 5 equiv NAC, PBS pH 7.4, HPLC
Method: Initially, the decomposition of 1a was analyzed in the presence of 5 equiv of N-acetylcysteine (NAC) in PBS (pH 7.4) by HPLC. […] To investigate the mechanism, this reaction was monitored by UPLC-MS. […] Additionally, a small amount of unsymmetrical dialkyl polysulfide (pink highlight, R^1SSnSR^2, n=0-3) is observed, likely formed via NAC reaction with symmetrical dialkyl polysulfides (Scheme 1-5, eq. 7). As expected, a new peak at 5.65 min corresponding to N-acetyl cysteine-thiocarbonate 9a also is observed, confirming thiol attack at the perthiocarbonate carbonyl carbon of 1a to release RSSH. Due to the unstable nature of RSSH under these experimental conditions, the yield of the by-product 9a was measured as an indication of RSSH yield. The observation of RSSH-derived polysulfides formation as major products led us to anticipate the efficient formation of by-product 9a. […] The lower observed yield of 9a is likely due to its further reaction with RSSH under these conditions. […]
To a solution of N-acetyl cysteine methyl ester (500 μM) in pH 7.4 phosphate buffer saline (100 mM) containing DTPA (100 μM), precursor 1a or 8 (100 μM) was added. […] At different time points, an aliquot of the reaction mixture (500 μL) was withdrawn and transferred to pre-cooled 0.1% formic acid (500 μL) and analyzed using HPLC. […]

H9c2 cardiac myoblasts = assay: Intracellular sulfane sulfur detection using the SSP4 probe; assay type: cell-based, rat; design: SSP4 fluorescence signal (intracellular sulfane sulfur): dose or concentration left out as unconfirmed
Method: Increased intracellular RSSH levels resulting from incubation with 1a utilizing SSP4, a fluorescent probe that has been used to detect of intracellular sulfane sulfur, Chen et al., 2013; Marutani et al., 2014, also was tested. Sulfane sulfur refers to a sulfur atom with six valence electrons and no charge. Biologically important sulfane sulfur compounds include RSSH, polysulfides (RSnSH or RSSnSR, n≥1), inorganic polysulfides (HSSnH, n≥1), and elemental sulfur (S8). Briefly, cells were incubated with SSP4 in the presence of cetrimonium bromide (CTAB) for 20 min and then washed with serum-free media before 1a is introduced. A significant increase of the SSP4 fluorescence signal was not observed following treatment with […] 1a due to the low amount of RSSH released at this concentration falling below the detection limit of the probe (FIG. 6). […] Since the SSP4 probe is known to react with a variety of sulfane sulfur species, the fluorescence signal observed upon treatment of 1a is likely due to RSSH and/or other sulfane sulfur species that might be present in the equilibrium with RSSH (e.g., Scheme 1-5). Thus, it is thought that the cytoprotective effects of 1a are attributed to increasing sulfane sulfur pools within the cultured cells.
Cells were seeded at a density of 1.5×10^4 cells/well. […] The fluorescence readings were obtained at 482Ex/515Em.

[3] = 10 equiv MMTS, PBS pH 7.4, 100 mM

COC(=O)C(NC(C)=O)C(C)(C)SSC(=O)Oc1ccccc1 (stereo not shown) [Precursor 1a, Methyl 2-acetamido-3-methyl-3-((phenoxycarbonyl)disulfaneyl)butanoate]
first-order rate constant k, disappearance of precursor [1, 3]: 0.00539 min⁻¹
first-order rate constant k, formation of phenol [1, 3]: 0.00533 min⁻¹
t1/2 of hydrolysis ([1]; pH 6.0): 1599 ± 48 min
t1/2 of hydrolysis ([1]; pH 8.0): 37 ± 3 min
t1/2 of decomposition in the presence of thiol [2]: 0.64 ± 0.11 min
SSP4 fluorescence signal (intracellular sulfane sulfur) (H9c2 cardiac myoblasts): not observed
SSP4 fluorescence intensity (intracellular sulfane sulfur) (H9c2 cardiac myoblasts; 100 and 200 mM, over a period of 3 h): Dose-dependent increases in fluorescence intensity
